Legend:
[1] = system: ocular normotensive human patients with diabetic eye disease; assay: Phase 2 trial: IOP after subcutaneous Compound 1 alone or with intravitreal ranibizumab, diabetic macular edema; assay type: in vivo; settings: for Week 4 subject-level IOP change from BL, mean (SD) / Week 4 subject-level IOP, mean (SD) / Week 8 subject-level IOP change from BL, mean (SD) / Week 8 subject-level IOP, mean (SD) / Week 12 subject-level IOP change from BL, mean (SD) / Week 12 subject-level IOP, mean (SD): average of study eye and fellow eye
Procedure: IOP in patients were measured using a double-masked, parallel-group designed to assess the effects of subcutaneous (SC) Compound 1 (sodium salt) alone, or as an adjunct to intravitreal ranibizumab trial. 144 human subjects with diabetic retinopathy complicated by center-involved diabetic macular edema (DME) were randomized to 3 months of one of 3 treatments: 1) Compound 1 (15 mg) SC twice daily (BID) plus sham monthly intravitreal injection (IVT); 2) Compound 1 SC BID plus ranibizumab (0.3 mg) monthly IVT; and 3) Placebo SC BID+ranibizumab IVT. At baseline, mean age was 61.3±1.3 years; 59% of subjects were male; 82.6% had Type 2 diabetes; mean HBA1c was 7.5%±1.3%; mean best corrected visual acuity was 60.2 ETDRS letters (Snellen 20/63); and mean IOP was 15.7 mmHg±3.4. Ophthalmic safety assessments were performed at baseline and monthly during the 3-month treatment period including a single IOP measurement by applanation tonometry in both the study eye and the fellow eye at each time point. By protocol, all patients had baseline IOP<24 mmHg (ocular normotensive).
In the pre-specified safety analysis, change from baseline IOP was analyzed using a t-test (null hypothesis 0 change from baseline). The level of significance was set at 0.05. A post hoc analysis of the subject level IOP measure was the change from baseline in the average over both eyes within a subject for each timepoint. Statistical testing of each timepoint was completed using ANCOVA with baseline IOP (averaged over both eyes within a subject) as covariate. Additionally, statistical testing averaging across all timepoints was completed using a mixed-model repeated measures ANCOVA. The level of significance was set at 0.05.

[2] = system: ocular normotensive patients; assay: Phase 1B multiple-ascending dose study of Compound 1 ophthalmic solution, IOP; assay type: in vivo, human; settings: for mean diurnal IOP reduction in the study eye, relative to the 15 mg/mL dose: ANCOVA model
Procedure: A multi-center, double-masked, randomized, placebo-controlled, multiple-ascending dose (MAD) cohort study in up to 48 ocular normotensive patients was conducted. For subjects in cohort 1, IOP was between 12 mmHg and 23 mmHg (inclusive) in both eyes on Day −1. Cohorts 2-4 were limited to subjects with pre-treatment IOP≥16 mmHg and ≤23 mmHg in at least one eye and ≤23 mmHg in both eyes at all timepoints on two separate days of IOP assessment during screening. Subjects who received additional carbonic-anhydrase inhibiting drops or cholinergic agonist drops were washed-out for at least 7 days prior to Day −1.
On Day −1 (day before first day of dosing), day 1, and day 7, for all cohorts, a baseline diurnal time point assessment of IOP in both eyes occurred at pre-dose, and 2, 4, and 8 hours post-dose relative to the planned dosing time the following day.
For cohort 1, on the morning of day 1 and day 2, all subjects were administered a single dose (one drop of approximately 30 μL of the dosing solution (Compound 1 or placebo) corresponding to the respective dose level) into the right eye only. If no AEs related to the investigational medicinal product (IMP) that represented a cause for concern were observed, then treatment was administered to both eyes once daily on the mornings of days 3 to 7. For all subsequent cohorts, dose administration was to both eyes on all 7 days (except cohort 4, in which treatment was administered in both eyes twice daily (AM and PM) on days 1-6 with a final single dose in both eyes on the morning of day 7).
Diurnal time point assessments of IOP were performed on day 1 and day 7 in both eyes at pre-dose, and 2, 4, and 8 hours post-dose in all cohorts.
The Compound 1 ophthalmic solution used for the trial was formulated as a sterile unpreserved solution of Compound 1 (0.5% w/v to 4.0% w/v, or 5 mg/mL to 40 mg/mL; as the sodium salt) in a vehicle containing 15% w/v HPβCD and 1% w/v mannitol and adjusted to a pH of 6.5-7.5 with 1N Hydrochloric Acid and/or 1N Sodium Hydroxide. The solution was filtered through sterile 0.22-μm filters, and 0.5 mL was aseptically filled into single-use sterile dose administration bottles suitable for ophthalmic delivery. Placebo was the same as the vehicle for the Compound 1 ophthalmic solution. Compound 1 was stored at United States Pharmacopeia (USP) controlled room temperature.

[3] = week 12, listed as All Compound 1
[4] = week 12, listed as Compound 1 + Sham

## COC(=O)N[C@@H](Cc1ccccc1)C(=O)N[C@@H](Cc1ccc(NS(=O)(=O)O)cc1)c1csc(-c2cccs2)n1 [Compound 1, 4-{(S)-2-[(S)-2-(Methoxycarbonylamino)-3-phenylpropanamido]-2-[2-(thiophen-2-yl)thiazol-4-yl]ethyl}phenylsulfamic acid]
[1]; listed as All Compound 1
  Week 4 subject-level IOP change from BL, mean (SD): −1.2 (2.92) mmHg
  Week 4 subject-level IOP, mean (SD): 14.5 (2.92) mmHg
  Week 8 subject-level IOP change from BL, mean (SD): −1.3 (3.17) mmHg
  Week 8 subject-level IOP, mean (SD): 14.5 (3.31) mmHg
[1]; listed as Compound 1 + Sham
  Week 4 subject-level IOP change from BL, mean (SD): −0.8 (3.14) mmHg
  Week 4 subject-level IOP, mean (SD): 14.7 (2.88) mmHg
  Week 8 subject-level IOP change from BL, mean (SD): −1.1 (3.25) mmHg
  Week 8 subject-level IOP, mean (SD): 14.4 (3.26) mmHg
[1]; [3]
  Week 12 subject-level IOP change from BL, mean (SD): −1.3 (2.93) mmHg
  Week 12 subject-level IOP, mean (SD): 14.5 (3.31) mmHg
[1]; [4]
  Week 12 subject-level IOP change from BL, mean (SD): −1.4 (2.98) mmHg
  Week 12 subject-level IOP, mean (SD): 14.1 (3.36) mmHg
[1]; fellow eye (FE)
  Week 4 IOP change from BL, mean (SD): −0.8 (3.36) mmHg
  Week 8 IOP change from BL, mean (SD): −1.1 (3.58) mmHg
[1]; fellow eye (FE), week 12
  Week 12 IOP change from BL, mean (SD): −1.4 (3.29) mmHg
  Week 12 IOP, mean (SD): 14.0 (3.41) mmHg
[1]; study eye (SE)
  Week 4 IOP change from BL, mean (SD): −0.8 (3.34) mmHg
  Week 8 IOP change from BL, mean (SD): −1.1 (3.37) mmHg
[1]; study eye (SE), week 12
  Week 12 IOP change from BL, mean (SD): −1.4 (3.16) mmHg
[2]; 40 mg/mL BID topical
  mean diurnal IOP reduction in the study eye, relative to the 15 mg/mL dose: −2.24 mmHg
[2]; 40 mg/mL QD topical
  mean diurnal IOP reduction in the study eye, relative to the 15 mg/mL dose: −1.93 mmHg
[2]; 40 mg/ml dose, 12 hours after the previous dose
  IOP on day 7 at the 0-hour, pre-dose time point: persistent TOP reduction
[2]; 40 mg/ml dose, days 1 and 7
  IOP change from baseline at 2, 4, and 8 hours post-dose: significant TOP reductions from baseline

— patent US12064420B2, “Tie-2 activators targeting the Schlemm's canal” (EyePoint Pharmaceuticals, Inc., priority 2019, dated 2024)
